Consider seven compounds from ChEMBL document CHEMBL1201862, “PubChem BioAssay data set” (2004).

Some test systems named below: A498; DU-145; HCT-116; HCT-15; HOP-62; HOP-92; HT-29; K562; MDA-MB-435; NCI-H226; OVCAR-3; OVCAR-5; OVCAR-8; PC-3; SF-295; SK-MEL-2; SK-OV-3; TK-10; UACC-62; UO-31.
Test in all cases: growth of human tumour cells (NCI), 48 h

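Step 1: Grow cells in 96-well plates. Step 2: Expose to compound for 48 hours at 5 concentrations. Step 3: Interpolate endpoints linearly; if unreached, use highest concentration. The concentration for 50% growth inhibition is given as GI50.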 The source made the active and inactive calls. Cut-off read from the data, not from the text of the source: active = GI50 up to about 1.1 µM and inactive = higher.

For the compound `Cc1ccc(OCC2OC(n3cnc4nc(Cl)nc(Cl)c43)CC2Oc2ccc(C)cc2)cc1` (stereo not given), the GI50 is 22.4 µM (inactive) in the test with A498; 12.9 µM (inactive) with DU-145; 4.55 µM (inactive) with HCT-116; 2.36 µM in the test with HCT-15; 16.3 µM (inactive) with HOP-62; 2.69 µM (inactive) in the test with HOP-92. Besides, the GI50 in the test with HT-29 is 5.85 µM (inactive); in the test with K562, 1.95 µM (inactive); in the test on MDA-MB-435, 5.3 µM (inactive); in the test on NCI-H226 it was 12 µM (inactive); in the test on OVCAR-3 it was 6.38 µM (inactive); in the test with OVCAR-5, 17.2 µM (inactive). The GI50 in the test on OVCAR-8 is 13.1 µM (inactive); with PC-3, 11.6 µM (inactive); with SF-295, 16.4 µM (inactive); with SK-MEL-2 it was 4.98 µM (inactive); with SK-OV-3 it was 30.3 µM (inactive); with TK-10 it was 13.8 µM (inactive). Besides, the GI50 in the test on UACC-62 is 6.04 µM (inactive); with UO-31, 10.1 µM (inactive).
Turning to `COc1ccc(-n2cnc3c(NC(CCSC)C(=O)O)ncnc32)cc1` (stereo not given), the GI50 with A498 is > 100 µM (inactive); in the test on DU-145 it was > 100 µM (inactive); in the test on HCT-116, > 100 µM (inactive); with HCT-15, > 100 µM; with HOP-62 it was > 100 µM (inactive); in the test on HOP-92, 74.1 µM (inactive). Also, the GI50 with HT-29, with K562, in the test on MDA-MB-435, in the test on NCI-H226, with OVCAR-3 and in the test on OVCAR-5 was > 100 µM (inactive) each time. Moreover, the GI50 with OVCAR-8, in the test on PC-3, in the test on SF-295, with SK-MEL-2, in the test on SK-OV-3 and in the test with TK-10 was > 100 µM (inactive) in each case. The GI50 in the test with UACC-62 and with UO-31 was > 100 µM (inactive) throughout.
As for `O=C1c2ccccc2NC(=S)[C@@H]2CCCN12`, the GI50 in the test on A498 is > 100 µM (inactive); in the test with DU-145 it was > 100 µM (inactive); in the test with HCT-116, > 100 µM (inactive); with HCT-15, > 100 µM; in the test with HOP-62, > 100 µM (inactive); in the test with HOP-92 it was > 100 µM (inactive). The GI50 with HT-29, in the test on K562, with MDA-MB-435, in the test with NCI-H226, in the test on OVCAR-3 and in the test on OVCAR-5 was > 100 µM (inactive) in each case. Besides, the GI50 in the test on OVCAR-8, in the test with PC-3, in the test with SF-295, in the test with SK-MEL-2, with SK-OV-3 and with TK-10 was > 100 µM (inactive) throughout. Further, the GI50 in the test on UACC-62 and in the test with UO-31 was > 100 µM (inactive) each time.
In the case of `CCC1(c2ccc(N3C(=O)c4cccc5cc([N+](=O)[O-])cc(c45)C3=O)cc2)CCC(=O)NC1=O` (stereo not given), the GI50 with A498 was 10.1 µM (inactive); with DU-145, > 44.9 µM (inactive); in the test on HCT-116 it was 5.42 µM (inactive); in the test with HCT-15, 31 µM; with HOP-62, 9.12 µM (inactive); in the test on HOP-92 it was 2.16 µM (inactive). Also, the GI50 was 20.5 µM (inactive) in the test with HT-29; 17.1 µM (inactive) in the test on K562; 24.3 µM (inactive) in the test with MDA-MB-435; 10.9 µM (inactive) in the test with NCI-H226; 20.7 µM (inactive) in the test with OVCAR-3; 60.8 µM (inactive) in the test with OVCAR-5. In addition, the GI50 is 12 µM (inactive) with OVCAR-8; 20.9 µM (inactive) in the test on PC-3; 15.9 µM (inactive) in the test on SF-295; > 100 µM (inactive) in the test on SK-MEL-2; 15 µM (inactive) in the test with SK-OV-3; 33 µM (inactive) with TK-10. Further, the GI50 was 21 µM (inactive) in the test on UACC-62 and 4.44 µM (inactive) in the test on UO-31.
In the case of `CCC1(O)CC(OC2CC(N(C)C)C(OC3CC(O)C(OC4CCC(=O)C(C)O4)C(C)O3)C(C)O2)c2c(cc3c(c2O)C(=O)c2c(O)ccc(O)c2C3=O)C1C(=O)OC` (stereo not given), the GI50 in the test on A498 is < 0.01 µM (active); in the test with DU-145 it was < 0.01 µM (active); in the test on HCT-116, < 0.01 µM (active); in the test with HCT-15 it was < 0.01 µM; in the test with HOP-62, < 0.01 µM (active); in the test with HOP-92, < 0.01 µM (active). The GI50 in the test on HT-29 is < 0.01 µM (active); with K562, < 0.01 µM (active); in the test on MDA-MB-435, < 0.0122 µM (active); with NCI-H226, < 0.01 µM (active); in the test on OVCAR-3 it was 0.0101 µM (active); with OVCAR-5, 0.0123 µM (active). Further, the GI50 in the test with OVCAR-8, in the test on PC-3, in the test with SF-295, in the test with SK-MEL-2, in the test with SK-OV-3 and in the test with TK-10 was < 0.01 µM (active) in each case. For the same compound, the GI50 in the test on UACC-62 and with UO-31 was < 0.01 µM (active) each time.
In the case of `Cc1ccc(S(=O)(=O)C2=C([Si](C)(C)C)C3CC2[C@@H]2C4C=CC(CC4)[C@H]32)cc1` (stereo not given in full), the GI50 in the test on A498 is > 100 µM (inactive); in the test with DU-145, > 100 µM (inactive); with HCT-116, > 100 µM (inactive); in the test on HCT-15, > 100 µM; in the test on HOP-62 it was 40.8 µM (inactive); with HOP-92, 60.7 µM (inactive). Further, the GI50 with HT-29 is > 100 µM (inactive); with K562, > 100 µM (inactive); in the test with MDA-MB-435 it was > 100 µM (inactive); in the test on NCI-H226, 95.3 µM (inactive); with OVCAR-3, 93.8 µM (inactive); with OVCAR-5, > 100 µM (inactive). The GI50 was > 100 µM (inactive) with OVCAR-8; 35.3 µM (inactive) with PC-3; 28.4 µM (inactive) in the test on SF-295; 23.3 µM (inactive) with SK-MEL-2; 45.1 µM (inactive) in the test with SK-OV-3; 27 µM (inactive) with TK-10. For the same compound, the GI50 in the test with UACC-62 is 60.5 µM (inactive); with UO-31, > 100 µM (inactive).
Regarding `O=C1C2CC=CCC2C(=O)N1n1c(Cc2ccc(Cl)cc2)n[nH]c1=O` (stereo not given), the GI50 in the test on A498 is > 100 µM (inactive); in the test with DU-145, > 100 µM (inactive); with HCT-116, > 100 µM (inactive); with HCT-15, > 100 µM; with HOP-62, > 100 µM (inactive); in the test with HOP-92, > 100 µM (inactive). For the same compound, the GI50 in the test on HT-29, in the test on K562, in the test on MDA-MB-435, in the test on NCI-H226, in the test with OVCAR-3 and in the test with OVCAR-5 was > 100 µM (inactive) each time. Besides, the GI50 with OVCAR-8, in the test on PC-3, in the test with SF-295, in the test with SK-MEL-2, with SK-OV-3 and in the test with TK-10 was > 100 µM (inactive) throughout. The GI50 in the test with UACC-62 and in the test on UO-31 was > 100 µM (inactive) throughout.
